Test results from ChEMBL document CHEMBL2412995, “Design, synthesis and in vitro evaluation against human cancer cells of 5-methyl-5-styryl-2,5-dihydrofuran-2-ones, a new series of goniothalamin analogues” (2013).

Key:
Type in all cases: functional
[1] = Antiproliferative activity against human NCI-ADR-RES cells assessed as concentration required for total cell growth inhibition after 48 hrs by SRB assay
[2] = system: MCF7; test: Antiproliferative activity against human MCF7 cells assessed as concentration required for total cell growth inhibition after 48 hrs by SRB assay; details: MCF7, 48 h
[3] = system: U-251; test: Antiproliferative activity against human U251 cells assessed as concentration required for total cell growth inhibition after 48 hrs by SRB assay; details: U-251, 48 h
[4] = system: UACC-62; test: Antiproliferative activity against human UACC62 cells assessed as concentration required for total cell growth inhibition after 48 hrs by SRB assay; details: UACC-62, 48 h
[5] = system: HaCaT; test: Antiproliferative activity against human HaCaT cells assessed as concentration required for total cell growth inhibition after 48 hrs by SRB assay
[6] = system: HT-29; test: Antiproliferative activity against human HT-29 cells assessed as concentration required for total cell growth inhibition after 48 hrs by SRB assay; details: HT-29, 48 h
[7] = system: K562; test: Antiproliferative activity against human K562 cells assessed as concentration required for total cell growth inhibition after 48 hrs by SRB assay; details: K562, 48 h
[8] = system: PC-3; test: Antiproliferative activity against human PC3 cells assessed as concentration required for total cell growth inhibition after 48 hrs by SRB assay; details: PC-3, 48 h
[9] = system: 786-0; test: Antiproliferative activity against human 786-0 cells assessed as concentration required for total cell growth inhibition after 48 hrs by SRB assay; details: 786-0, 48 h

SMILES: COc1cc(/C=C/C2(C)C=CC(=O)O2)cc(OC)c1O (stereo not given)
- TGI [1]: 51.6 µM
- TGI [2]: 45.3 µM
- TGI [3]: 40.7 µM
- TGI [4]: 24.6 µM
- TGI [5]: 64.4 µM
- TGI [6]: 19.1 µM
- TGI [7]: > 1000 µM
- TGI [8]: 131 µM
- TGI [9]: 108 µM

SMILES: CC1(/C=C/c2ccccc2)C=CC(=O)O1 (stereo not given)
- TGI [1]: 414 µM
- TGI [2]: 95.3 µM
- TGI [3]: 89.8 µM
- TGI [4]: 97.2 µM
- TGI [5]: 119 µM
- TGI [6]: 123 µM
- TGI [7]: > 1000 µM
- TGI [8]: 86.9 µM
- TGI [9]: 170 µM

SMILES: CC1(/C=C/c2ccccc2C(F)(F)F)C=CC(=O)O1 (stereo not given)
- TGI [1]: 12.2 µM
- TGI [2]: 13.5 µM
- TGI [3]: 14.1 µM
- TGI [4]: 17.7 µM
- TGI [5]: 12.7 µM
- TGI [6]: 15.8 µM
- TGI [7]: 573 µM
- TGI [8]: 17.9 µM
- TGI [9]: 27.9 µM

SMILES: CC1(/C=C/c2ccc(C(F)(F)F)cc2)C=CC(=O)O1 (stereo not given)
- TGI [1]: 9.4 µM
- TGI [2]: 20.4 µM
- TGI [3]: 15.7 µM
- TGI [4]: 15.5 µM
- TGI [5]: 12.1 µM
- TGI [6]: 12.3 µM
- TGI [7]: 652 µM
- TGI [8]: 13.1 µM
- TGI [9]: 34 µM

SMILES: CC1(/C=C/c2ccc(F)cc2)C=CC(=O)O1 (stereo not given)
- TGI [1]: 25.7 µM
- TGI [2]: 38.5 µM
- TGI [3]: 60.8 µM
- TGI [4]: 55.3 µM
- TGI [5]: 47.5 µM
- TGI [6]: 34.9 µM
- TGI [7]: > 1000 µM
- TGI [8]: 46.5 µM
- TGI [9]: 101 µM

SMILES: COc1ccc(/C=C/C2(C)C=CC(=O)O2)c(OC)c1 (stereo not given)
- TGI [1]: 151 µM
- TGI [2]: 43.5 µM
- TGI [3]: 62.8 µM
- TGI [4]: 80.1 µM
- TGI [5]: 53.6 µM
- TGI [6]: 57.5 µM
- TGI [7]: > 1000 µM
- TGI [8]: 63.5 µM
- TGI [9]: 108 µM

SMILES: COc1ccc(/C=C/C2(C)C=CC(=O)O2)cc1OC (stereo not given)
- TGI [1]: 111 µM
- TGI [2]: 78.9 µM
- TGI [3]: 192 µM
- TGI [4]: 84.1 µM
- TGI [5]: 838 µM
- TGI [6]: 927 µM
- TGI [7]: > 1000 µM
- TGI [8]: 176 µM
- TGI [9]: 22.9 µM

SMILES: COc1ccc(/C=C/C2(C)C=CC(=O)O2)c(OC)c1OC (stereo not given)
- TGI [1]: 349 µM
- TGI [2]: 110 µM
- TGI [3]: 87.2 µM
- TGI [4]: 71.5 µM
- TGI [5]: 217 µM
- TGI [6]: 133 µM
- TGI [7]: > 1000 µM
- TGI [8]: 90 µM
- TGI [9]: 132 µM

SMILES: COc1cc(OC)c(OC)cc1/C=C/C1(C)C=CC(=O)O1 (stereo not given)
- TGI [1]: 158 µM
- TGI [2]: 144 µM
- TGI [3]: 160 µM
- TGI [4]: 127 µM
- TGI [5]: 180 µM
- TGI [6]: 127 µM
- TGI [7]: > 1000 µM
- TGI [8]: 184 µM
- TGI [9]: 205 µM

SMILES: COc1cc(/C=C/C2(C)C=CC(=O)O2)cc(OC)c1OC (stereo not given)
- TGI [1]: 123 µM
- TGI [2]: 56.6 µM
- TGI [3]: 125 µM
- TGI [4]: 178 µM
- TGI [5]: 175 µM
- TGI [6]: 390 µM
- TGI [7]: > 1000 µM
- TGI [8]: 131 µM
- TGI [9]: 116 µM

SMILES: COc1cc(OC)c(/C=C/C2(C)C=CC(=O)O2)c(OC)c1 (stereo not given)
- TGI [1]: 229 µM
- TGI [2]: 102 µM
- TGI [3]: 193 µM
- TGI [4]: 208 µM
- TGI [5]: 458 µM
- TGI [6]: 127 µM
- TGI [7]: > 1000 µM
- TGI [8]: 239 µM
- TGI [9]: 459 µM

SMILES: CC1(/C=C/c2ccccc2O)C=CC(=O)O1 (stereo not given)
- TGI [1]: 78 µM
- TGI [2]: 46.2 µM
- TGI [3]: 70.9 µM
- TGI [4]: 92.5 µM
- TGI [5]: 57.3 µM
- TGI [6]: 31.3 µM
- TGI [7]: > 1000 µM
- TGI [8]: 112 µM
- TGI [9]: 136 µM

SMILES: CC1(/C=C/c2cccc(O)c2)C=CC(=O)O1 (stereo not given)
- TGI [1]: 647 µM
- TGI [2]: 124 µM
- TGI [3]: 118 µM
- TGI [4]: 108 µM
- TGI [5]: 88.1 µM
- TGI [6]: 97.4 µM
- TGI [7]: > 1000 µM
- TGI [8]: 98.8 µM
- TGI [9]: 196 µM

SMILES: CC1(/C=C/c2ccc(O)cc2)C=CC(=O)O1 (stereo not given)
- TGI [1]: 111 µM
- TGI [2]: 69.1 µM
- TGI [3]: 107 µM
- TGI [4]: 55.3 µM
- TGI [5]: 81.2 µM
- TGI [6]: 122 µM
- TGI [7]: > 1000 µM
- TGI [8]: 138 µM
- TGI [9]: 143 µM

SMILES: COc1ccccc1/C=C/C1(C)C=CC(=O)O1 (stereo not given)
- TGI [1]: 64.5 µM
- TGI [2]: 27 µM
- TGI [3]: 41.1 µM
- TGI [4]: 31 µM
- TGI [5]: 30.8 µM
- TGI [6]: 30.8 µM
- TGI [7]: 860 µM
- TGI [8]: 34.2 µM
- TGI [9]: 35.4 µM

SMILES: COc1cccc(/C=C/C2(C)C=CC(=O)O2)c1 (stereo not given)
- TGI [1]: 48.6 µM
- TGI [2]: 25.3 µM
- TGI [3]: 37.6 µM
- TGI [4]: 55.8 µM
- TGI [5]: 5.7 µM
- TGI [6]: 17 µM
- TGI [7]: > 1000 µM
- TGI [8]: 31.6 µM
- TGI [9]: 70 µM

SMILES: COc1ccc(/C=C/C2(C)C=CC(=O)O2)cc1 (stereo not given)
- TGI [1]: > 1000 µM
- TGI [2]: 183 µM
- TGI [3]: 127 µM
- TGI [4]: 147 µM
- TGI [5]: 316 µM
- TGI [6]: 92.9 µM
- TGI [7]: > 1000 µM
- TGI [8]: 145 µM
- TGI [9]: > 1000 µM

SMILES: C[C@]1(/C=C/c2ccccc2)CC=CC(=O)O1
- TGI [1]: 107 µM
- TGI [2]: 48 µM
- TGI [3]: 27.5 µM
- TGI [4]: 37.2 µM
- TGI [5]: 50.7 µM
- TGI [6]: 41.1 µM
- TGI [7]: > 1000 µM
- TGI [8]: 31.7 µM
- TGI [9]: 68.7 µM

SMILES: COc1cccc2c1C(=O)c1c(O)c3c(c(O)c1C2=O)C[C@@](O)(C(=O)CO)C[C@@H]3O[C@H]1C[C@H](N)[C@H](O)[C@H](C)O1 [DOXORUBICIN]
- TGI [1]: 10.3 µM
- TGI [2]: 4.9 µM
- TGI [3]: 2.1 µM
- TGI [4]: 0.2 µM
- TGI [5]: 0.4 µM
- TGI [6]: 3.6 µM
- TGI [7]: 45.5 µM
- TGI [8]: 2.5 µM
- TGI [9]: 1 µM

SMILES: O=C1C=CC[C@H](/C=C/c2ccccc2)O1 [GONIOTHALAMIN]
- TGI [1]: 14.5 µM
- TGI [2]: 11.2 µM
- TGI [3]: 9.8 µM
- TGI [4]: 17.4 µM
- TGI [5]: 13.4 µM
- TGI [6]: 10 µM
- TGI [7]: 927 µM
- TGI [8]: 9.6 µM
- TGI [9]: 13.9 µM
